Measured values: US9089129B2, “Non-aerosol foaming alcohol hand sanitizer” (AMERICAN STERILIZER COMPANY, priority 2011, dated 2015)

Tested on: not listed separately
Assay: Foam quality and stability screen in 70% w/w ethanol solution
Format: physicochemical
Parameters: key: Poor: little to no foam generated; Moderate: some foam generated, and/or foam generated collapsed rapidly; Good: large amount of foam was generated and foam was stable (did not collapse rapidly)
Settings: approximately one gram of component in 15 grams of 70% w/w ethanol solution (aqueous), shaken by hand for 15 seconds
Method: A number of different components were screened to evaluate their ability to create a stable foam in a 70% w/w ethanol solution (aqueous). For this evaluation, approximately one gram of each component was added to 15 grams of the ethanol solution in a vial.

Compound	Foam Profile
CCCCCCCCCCCCCC(=O)NCCC[N+](C)(C)CC(O)CO.[Cl-] (centres unmarked) [Myristamidopropyl PG-dimonium chloride]	Poor
CO[C@H]1CO[C@H]2[C@@H]1OC[C@H]2OC [Dimethyl Isosorbide]	Poor
Quaternium-92	Poor
Glycereth-7 Cocoate	Poor
Isostearamidopropyl Morpholine Lactate	Poor
Glycereth-18 Ethylhexanoate	Moderate
Lauramine Oxide	Poor
PPG-15 Stearyl Ether	Poor
CC(O)C(=O)O.CCCCCCCCCCCCCCCCCC(=O)NCCCN(C)C [Stearamidopropyl dimethylamine lactate]	Poor
POE-2 Coco Amine	Poor
CCCCCCCCCC[N+](C)(C)CCCCCCCCCC.[Cl-] [Didecyl dimethyl ammonium chloride]	Poor
Quaternium-26	Poor
Alkyl Glucoside	Poor
Cocamidopropyl PG-Dimonium Chloride Phosphate	Poor
CCCCCCCCCCCC(=O)OC(C)C(=O)OC(C)C(=O)[O-].[Na+] (centres unmarked) [Sodium Lauroyl Lactylate]	Poor
CCCCCCCCCCCCCCCCCCCCCC[N+](C)(C)C.COS(=O)(=O)[O-] [Behentrimonium Methosulfate]	Poor
OCC(O)CO [Glycerin]	Poor
CCCCCCCC/C=C\CCCCCCCC[N+](C)(C)Cc1ccccc1.[Cl-] [Olealkonium chloride]	Poor

Tested on: Serratia marcescens
Assay: Pigskin model, 1 and 5 inoculation/treatment cycles
Settings: 1 inoculation/treatment cycle, FIG. 4
Method: Each sample was evaluated at two different inoculation/treatment cycles, i.e., at 1 inoculation/treatment and 5 inoculations/treatments. Tests were completed using the pigskin model, the inoculant, Serratia marcescens, and 1 and 5 inoculation/treatment cycles. The “pigskin model” is a method designed to simulate a HCPHW test using pigskins prepared according to the method described in U.S. Pat. No. 7,985,773 to […] et al., incorporated herein by reference. In this example, pigskin pairs were inoculated with bacteria, rubbed together for 15 seconds, and allowed to air dry for 1 minute. The two different ethanol solutions having concentrations of 62% w/w and 70% w/w and two different product formulations N and O, one having 62% w/w ethanol (N) and the other having 70% w/w ethanol (O), were applied to pairs of pigskins (0.2 ml per pair/0.1 ml per piece). The pairs of pigskins (having the same treatment) were rubbed together for 30 seconds and allowed to air dry for 4 minutes. Neutralizer was then applied to the pigskins, they were debrided for 30 seconds, serially diluted and plated.

Compound	log reduction
CCO [ethanol]	did provide efficacy

Same assay, conditions: 5 inoculation/treatment cycles, FIG. 4

Compound	log reduction
CCO [ethanol]	efficacy decreased
